# Experimental data: patent US11186554B2, “Non-fused tricyclic compounds” (VIVACE THERAPEUTICS, INC., priority 2017, dated 2021)
# Where two headings read alike, the source gives them in different places.
# System: firefly luciferase activity
# Assay: Dual-Glo firefly/renilla luciferase reporter assay in cells
# Format: cell-based
# [1] = 24 h, read-out: Firefly Luciferase IC50 (μM)
# [2] = 24 hrs compound treatment, starting from 3 uM, 1:3 dilution, 10 points, read-out: Firefly Luciferase IC50
IC50 [2],SMILES,IC50 [1]
,"OCCn1cnc(-c2ccccc2Nc2ccc(C(F)(F)F)cc2)c1 [Compound 197, 2-(4-(2-((4-(trifluoromethyl)phenyl)amino)phenyl)-1H-imidazol-1-yl)ethan-1-ol]",0.1 to 1 µM
1 to 5 µM,"CNCCCn1nnc(-c2ccccc2Nc2ccc(C(F)(F)F)cc2)n1 [Compound 220, 2-(2-(3-(methylamino)propyl)-2H-tetrazol-5-yl)-N-(4-(trifluoromethyl)phenyl) Aniline]",
< 0.1 µM,"OC1(Cn2nnc(-c3ccccc3Nc3ccc(C(F)(F)F)cc3)n2)CC1 [Compound 204, 1-((5-(2-((4-(trifluoromethyl)phenyl)amino)phenyl)-2H-tetrazol-2-yl)methyl) cyclopropan-1-ol]",
< 0.1 µM,"FC(F)(F)c1ccc(Nc2ccccc2-c2nnn(C3CCOC3)n2)cc1 (stereo not drawn) [Compound 119, 2-(2-(tetrahydrofuran-3-yl)-2H-tetrazol-5-yl)-N-(4-(trifluoromethyl)phenyl) Aniline]",
< 0.1 µM,"CCOC(=O)C(C)n1nnc(-c2ccccc2Nc2ccc(C(F)(F)F)cc2)n1 (stereo not drawn) [Compound 116, ethyl 2-[5-[2-[4-(trifluoromethyl)anilino]phenyl]tetrazol-2-yl]propanoate]",
,"CN(C)C(=O)Cn1nnc(-c2ccccc2Nc2ccc(C(F)(F)F)cc2)n1 [Compound 43, N,N-dimethyl-2-[5-[2-[4-(trifluoromethyl)anilino]phenyl]tetrazol-2-yl]acetamide]",0.1 to 1 µM
1 to 5 µM,"OC(Cn1nnc(-c2ccccc2Nc2ccc(C(F)(F)F)cc2)n1)c1ccccc1 (stereo not drawn) [Compound 143, 1-phenyl-2-[5-[2-[4-(trifluoromethyl)anilino]phenyl]tetrazol-2-yl]ethanol]",
< 0.1 µM,"CCc1ccc(Nc2ccc(C(F)(F)F)cc2)c(-c2nnn(CCO)n2)c1 [Compound 256, 2-[5-[5-ethyl-2-[4-(trifluoromethyl)anilino]phenyl]tetrazol-2-yl]ethanol]",
0.1 to 1 µM,"O=C1N[C@H](Cn2nnc(-c3ccccc3Nc3ccc(C(F)(F)F)cc3)n2)CO1 [Compound 158, (R)-4-((5-(2-((4-(trifluoromethyl)phenyl)amino)phenyl)-2H-tetrazol-2-yl)methyl)oxazolidin-2-one]",
0.1 to 1 µM,"FC(F)(F)c1ccc(Nc2ccccc2-c2nnn(Cc3cccnc3)n2)cc1 [Compound 40, 2-[2-(3-pyridylmethyl)tetrazol-5-yl]-N-[4-(trifluoromethyl)phenyl]aniline]",
0.1 to 1 µM,"CC(=O)N1CC(O)(Cn2nnc(-c3ccccc3Nc3ccc(C(F)(F)F)cc3)n2)C1 [Compound 161, 1-[3-hydroxy-3-[[5-[2-[4-(trifluoromethyl)anilino]phenyl]tetrazol-2-yl]methyl]azetidin-1-yl]ethanone]",
< 0.1 µM,"CC(CN)n1nnc(-c2ccccc2Nc2ccc(C(F)(F)F)cc2)n1 (stereo not drawn) [Compound 218, 2-(2-(1-aminopropan-2-yl)-2H-tetrazol-5-yl)-N-(4-(trifluoromethyl)phenyl) Aniline]",
,"CCc1ccc(Nc2ccccc2-c2nnn(CCO)n2)cc1 [Compound 9, 2-[5-[2-(4-ethylanilino)phenyl]tetrazol-2-yl]ethanol]",0.1 to 1 µM
0.1 to 1 µM,"FC(F)(F)c1ccc(Nc2ccccc2-c2nnn(CC3COC3)n2)cc1 [Compound 166, 2-(2-(oxetan-3-ylmethyl)-2H-tetrazol-5-yl)-N-(4-(trifluoromethyl)phenyl) Aniline]",
,"OCCn1nnc(-c2cc(OC(F)F)ccc2Nc2ccc(C(F)(F)F)cc2)n1 [Compound 260, 2-(5-(5-(difluoromethoxy)-2-((4-(trifluoromethyl)phenyl)amino)phenyl)-2H-tetrazol-2-yl)ethanol]",< 0.1 µM
< 0.1 µM,"OCCn1nnc(-c2ccccc2Nc2ccc(C(F)(F)F)cc2)n1 [Compound 23, 2-(5-(2-((4-(Trifluoromethyl)phenyl)amino)phenyl)-2H-tetrazol-2-yl)ethanol]",
0.1 to 1 µM,"FC(F)(F)OCCn1nnc(-c2ccccc2Nc2ccc(C(F)(F)F)cc2)n1 [Compound 185, 2-(2-(2-(trifluoromethoxy)ethyl)-2H-tetrazol-5-yl)-N-(4-(trifluoromethyl)phenyl)aniline]",
,"Cc1ccc(Nc2ccc(C(F)(F)F)cc2)c(-c2nnn(CCO)n2)c1 [Compound 242, 2-(5-(5-methyl-2-((4-(trifluoromethyl)phenyl)amino)phenyl)-2H-tetrazol-2-yl)ethanol]",< 0.1 µM
0.1 to 1 µM,"[O-][S+]1CC(O)(Cn2nnc(-c3ccccc3Nc3ccc(C(F)(F)F)cc3)n2)C1 (stereo not drawn) [Compound 245, 1-oxo-3-[[5-[2-[4-(trifluoromethyl)anilino]phenyl]tetrazol-2-yl]methyl]thietan-3-ol]",
,"CN(C)CCn1nnc(-c2ccccc2Nc2ccc(C(F)(F)F)cc2)n1 [Compound 50, 2-[2-[2-(dimethylamino)ethyl]tetrazol-5-yl]-N-[4-(trifluoromethyl)phenyl]aniline]",0.1 to 1 µM
,"OCCn1nnc(-c2cccnc2Nc2ccc(OC(F)(F)F)cc2)n1 [Compound 75, 2-(5-(2-((4-(trifluoromethoxy)phenyl)amino)pyridin-3-yl)-2H-tetrazol-2-yl)ethanol]",0.1 to 1 µM

IC50 [2],SMILES,IC50 [1]
1 to 5 µM,"OC1(Cn2nnc(-c3ccccc3Nc3ccc(C(F)(F)F)cc3)n2)CCNCC1 [Compound 135, 4-[[5-[2-[4-(trifluoromethyl)anilino]phenyl]tetrazol-2-yl]methyl]piperidin-4-ol]",
< 0.1 µM,"OCCn1nnc(-c2ccc(F)cc2Nc2ccc(C(F)(F)F)cc2)n1 [Compound 181, 2-[5-[4-fluoro-2-[4-(trifluoromethyl)anilino]phenyl]tetrazol-2-yl]ethanol]",
< 0.1 µM,"C[C@H](O)[C@H](C)n1nnc(-c2ccccc2Nc2ccc(C(F)(F)F)cc2)n1 [Compound 192, (2S,3S)-3-(5-(2-((4-(trifluoromethyl)phenyl)amino)phenyl)-2H-tetrazol-2-yl)butan-2-ol]",
,"COc1ccc(Nc2ccc(C(F)(F)F)cc2)c(-c2nnn(CCO)n2)c1 [Compound 240, 2-[5-[5-methoxy-2-[4-(trifluoromethyl)anilino]phenyl]tetrazol-2-yl]ethanol]",< 0.1 µM
0.1 to 1 µM,"FC(F)(F)c1ccc(Nc2ccccc2-c2nnn(CC3CCC3)n2)cc1 [Compound 170, 2-(2-(Cyclobutylmethyl)-2H-tetrazol-5-yl)-N-(4-(trifluoromethyl)phenyl)aniline]",
0.1 to 1 µM,"FC(F)(F)c1ccc(Nc2ccccc2-c2nnn(C3CCCOC3)n2)cc1 (stereo not drawn) [Compound 120, 2-(2-tetrahydropyran-3-yltetrazol-5-yl)-N-[4-(trifluoromethyl)phenyl]aniline]",
,"OCCn1nnc(-c2ccccc2Nc2ccc(OC(F)(F)F)cc2)n1 [Compound 11, 2-(5-(2-((4-(Trifluoromethoxy)phenyl)amino)phenyl)-2H-tetrazol-2-yl)ethanol]",< 0.1 µM
0.1 to 1 µM,"OC1(Cn2nnc(-c3ccccc3Nc3ccc(C(F)(F)F)cc3)n2)CCCNC1 (stereo not drawn) [Compound 156, 3-((5-(2-((4-(trifluoromethyl)phenyl)amino)phenyl)-2H-tetrazol-2-yl)methyl) piperidin-3-ol]",
< 0.1 µM,"COCC(C)n1nnc(-c2ccccc2Nc2ccc(C(F)(F)F)cc2)n1 (stereo not drawn) [Compound 129, 2-(2-(1-methoxypropan-2-yl)-2H-tetrazol-5-yl)-N-(4-(trifluoromethyl)phenyl) Aniline]",
1 to 5 µM,"CS(=O)(=O)NCCCn1nnc(-c2ccccc2Nc2ccc(C(F)(F)F)cc2)n1 [Compound 109, N-(3-(5-(2-((4-(trifluoromethyl)phenyl)amino)phenyl)-2H-tetrazol-2-yl)propyl)methanesulfonamide]",
,"OCCn1nnc(-c2cc(C(F)(F)F)ccc2Nc2ccc(C(F)(F)F)cc2)n1 [Compound 262, 2-(5-(5-(trifluoromethyl)-2-((4-(trifluoromethyl)phenyl)amino)phenyl)-2H-tetrazol-2-yl)ethanol]",0.1 to 1 µM
0.1 to 1 µM,"CC(=O)NCCCn1nnc(-c2ccccc2Nc2ccc(C(F)(F)F)cc2)n1 [Compound 111, N-[3-[5-[2-[4-(trifluoromethyl)anilino]phenyl]tetrazol-2-yl]propyl]acetamide]",
1 to 5 µM,"FC(F)(F)Oc1ccc(Nc2ccccc2-c2nnn(Cc3ccncc3)n2)cc1 [Compound 53, 2-[2-(4-pyridylmethyl)tetrazol-5-yl]-N-[4-(trifluoromethoxy)phenyl]aniline]",
,"CCOC(=O)Cn1cc(-c2ccccc2Nc2cccc(C(F)(F)F)c2)nn1 [Compound 18, Ethyl 2-[4-[2-[3-(trifluoromethyl)anilino]phenyl]triazol-1-yl]acetate]",1 to 5 µM
0.1 to 1 µM,"NCCCn1nnc(-c2ccccc2Nc2ccc(C(F)(F)F)cc2)n1 [Compound 216, 2-(2-(3-aminopropyl)-2H-tetrazol-5-yl)-N-(4-(trifluoromethyl)phenyl)aniline]",
< 0.1 µM,"COCCn1nnc(-c2ccccc2Nc2ccc(C(F)(F)F)cc2)n1 [Compound 173, 2-(2-(2-methoxyethyl)-2H-tetrazol-5-yl)-N-(4-(trifluoromethyl)phenyl)aniline]",
0.1 to 1 µM,"O=C1NCC(Cn2nnc(-c3ccccc3Nc3ccc(C(F)(F)F)cc3)n2)O1 (stereo not drawn) [Compound 136, 5-((5-(2-((4-(trifluoromethyl)phenyl)amino)phenyl)-2H-tetrazol-2-yl)methyl)oxazolidin-2-one]",
1 to 5 µM,"Cn1nc(-c2ccccc2Nc2ccc(C(F)(F)F)cc2)nc1CCO [Compound 205, 2-(1-methyl-3-(2-((4-(trifluoromethyl)phenyl)amino)phenyl)-1H-1,2,4-triazol-5-yl)ethan-1-ol]",
1 to 5 µM,"COCCn1nnc(-c2ccccc2Nc2cccc(C(F)(F)F)c2)n1 [Compound 5, 2-[2-(2-methoxyethyl)tetrazol-5-yl]-N-[3-(trifluoromethyl)phenyl]aniline]",
0.1 to 1 µM,"CC(C)C(=O)Cn1nnc(-c2ccccc2Nc2ccc(C(F)(F)F)cc2)n1 [Compound 128, 3-methyl-1-[5-[2-[4-(trifluoromethyl)anilino]phenyl]tetrazol-2-yl]butan-2-one]",
,"OCCn1nnc(-c2ccccc2Nc2ccc(Br)cc2)n1 [Compound 207, 2-(5-(2-((4-bromophenyl)amino)phenyl)-2H-tetrazol-2-yl)ethan-1-01]",0.1 to 1 µM
